Data reported in patent US11603364B2, “Acyl hydrazone derivative compounds for treating disease” (Alterity Therapeutics Limited, priority 2020, dated 2023).

Tests used:
[1] = test system: phospho-GSK-3β; experiment: GSK 3b assay: Zn ionophore-enhanced phosphorylation of GSK-3β (AlphaScreen SureFire Phospho-GSK 3β (Ser9) kit) in SH-SY5Y cells; assay type: cell-based, human; conditions: test compound 2 μM + ZnCl2 5 μM, 2 h at 37° C.
Description: The phosphorylation of GSK-3β is enhanced when Zn is imported into a cell by a Zn ionophore. This property was measured for the compounds of the current invention and the data presented relative to the know Zn ionophore PBT2 using the following protocol.
The human neuroblastoma SH-SY5Y cells were obtained from Cell bank Australia (Catalogue number: 94030304). SH-SY5Y cell culture was maintained in DMEM/F12+15% FBS inside an incubator at 37° C. in the presence of 5% CO2. The cells were sub-cultured once a week and the media exchanged once during the week. Cells for the assay were plated at a density of 60,000 cells/well.
Stock solutions of the samples were prepared as a 5 mM stock in DMSO and a stock solution of 1 mM ZnCl2/3 mM Glutamic acid was prepared in water. Immediately before use the compounds were diluted 1:10 with water before being added to Locke's buffer in a treatment tube. Samples were subsequently treated with either distilled water or the ZnCl2/Glutamic acid solution to yield a treatment solution which has a final concentration of the test compound at 2 μM+/−ZnCl2 at 5 μM.
The culture media was aspirated from the wells and the media replaced with the treatment solution prepared above. In addition to the relative standard (PBT2+/−ZnCl2), control wells were also included consisting of +/−ZnCl2 at 5 μM with all treatments done in triplicate. The plate was incubated at 37° C. with the treatment solution for 2 h after which time the wells were aspirated and washed with sterile PBS.
Measurement of the change of phospho-GSK-3β was determined using an AlphaScreen® SureFire® Phospho-GSK […] (Ser9) Kit with the cells being processed as per the manufacturer's instructions using an initial incubation of 2 h/24° C. and a final incubation of 16 h/24° C.
The fluorescence was measured on an Enspire plate reader. […] Representative data is presented in Table 12 using the following ranges: A<50%, B 50-<100%, C 100-<150%, D>150%.

[2] = test system: BE(2)-M17 (M17) cells; experiment: Method I: Measurement of Fe efflux from cells (57Fe-loaded, ICP-MS of media); assay type: cell-based, human; conditions: M17 cells loaded with 20 μM 57Fe, compound 20 μM, 2 h; for activation at 20 µM: Homo sapiens, read-out: Fe-Efflux (% increase of Fe in media relative to cell media in the absence of the compound)
Description: Method I: Measurement of Fe Efflux from Cells
Compounds of the current invention were assessed for their ability to efflux iron (Fe) from a cell using the following protocol.
The human neuroblastoma line BE(2)-M17 (M17) cell cultures were acquired from Sigma Aldrich (Catalogue #: 95011816). M17 Cells were maintained in Opti-MEM reduced serum media supplemented with 10% fetal bovine serum (Bovogen, SFBSF) and passaged twice weekly. Cells were cultured at 37° C. in the presence of 5% CO2. Culture supplies were sourced from Thermo Fisher unless otherwise stated.
A solution of ^57Fe cold isotope was prepared by dissolving ^57Fe metal (>95% enrichment, Trace Sciences International) in concentrated HCl to give a final concentration of 573 mM. From this master solution, a 10 mM working solution was prepared in sterile water. The working solution was used within two months of preparation.
M17 cells were loaded with iron initially by seeding into 48-well plates at a density of 0.15×10^6 cells per well in 0.5 mL media. After 48 h, old media was discarded. Fresh media was supplemented with 20 μM ^57Fe isotope, from the 10 mM ^57Fe working solution. Cells received 0.2 mL of this ^57Fe enriched media and were returned to the incubator for 20 h. The ability of experimental compounds to efflux iron was determined by the dissolution of compounds in DMSO and diluted in Hanks' Balanced Salt Solution (HBSS) for treatment of M17 cells. After ^57Fe incubation, cells were rinsed twice with HBSS and treated with 0.15 mL trial compound for 2 h at a concentration of 20 μM. All assays included a relevant vehicle (0.4%-0.8% DMSO) as well as a positive control (20 μM). Following the treatment period, 0.1 mL of media was collected from cells and the extracellular ^57Fe content was analysed via inductively coupled mass spectrometry (ICP-MS, Agilent 7700x series instrument).
To perform this protocol the following supplies were purchased from Sigma Aldrich: anhydrous dimethyl sulfoxide (DMSO, Catalogue #: 276855), Hanks' Balanced Salt Solution supplemented with 20 mM HEPES and 4.2 mM Sodium Bicarbonate (HBSS, pH: 7.4, Catalogue #: H1387).
After 2 h the Fe levels in the media were measured and the increase determined as a percentage increase relative to the cell media in the absence of the compound.
Representative data is provided in Table 13 where the % Fe efflux for the specified compounds of the invention lie in the following ranges: A<30%, B 30-100%, C 100-150%; D>150%.

Compound | GSK-Zn (signal as % of the positive standard PBT2+ZnCl2) [1] | activation at 20 µM [2] [%] | Fe-Efflux (% increase of Fe in media relative to cell media in the absence of the compound) [2]
O=C(N/N=C1\CCCc2cccnc21)c1cccnc1 [Compound 1, (E)-N′-(6,7-Dihydroquinolin-8(5H)-ylidene)nicotinohydrazide] | A (A<50%) | > 150 | –
O=C(N/N=C1\CCCc2cccnc21)c1ccccn1 [Compound 2] | A (A<50%) | 100 to 150 | –
O=C(N/N=C1\CCCc2cccnc21)c1ccncc1 [Compound 3] | A (A<50%) | > 150 | –
CCOc1ccccc1C(=O)N/N=C1\CCCc2cccnc21 [Compound 4] | A (A<50%) | 30 to 100 | –
COc1cccc(C(=O)N/N=C2\CCCc3cccnc32)c1 [Compound 6] | A (A<50%) | < 30 | –
COc1ccc(C(=O)N/N=C2\CCCc3cccnc32)cc1OC [Compound 7] | A (A<50%) | 30 to 100 | –
COc1ccccc1C(=O)N/N=C1\CCCc2cccnc21 [Compound 8] | A (A<50%) | 100 to 150 | –
COc1ccc(C(=O)N/N=C2\CCCc3cccnc32)cc1 [Compound 9] | A (A<50%) | 30 to 100 | –
O=C(N/N=C1\CCCc2cccnc21)c1ccccc1 [Compound 10] | B (B 50-<100%) | 30 to 100 | –
O=C(N/N=C1\CCCc2cccnc21)c1ccccc1Cl [Compound 15] | D (D>150%) | > 150 | –
Cc1nnsc1C(=O)N/N=C1\CCCc2cccnc21 [Compound 23] | C (C 100-<150%) | > 150 | –
CCOC(=O)C1CCc2cccnc2/C1=N/NC(=O)c1snnc1C (centres unmarked) [Compound 31] | – | 30 to 100 | –
Cc1nc(C)c(C(=O)N/N=C2\CCCc3cccnc32)s1 [Compound 32] | – | 100 to 150 | –
Cc1cc(C(=O)N/N=C2\CCCc3cccnc32)no1 [Compound 33] | – | > 150 | –
CN(C)CCOc1ccccc1C(=O)N/N=C1\CCCc2cccnc21.Cl [Compound 39] | A (A<50%) | > 150 | –
O=C(N/N=C1\CCCc2cccnc21)c1ccccc1OCCN1CCCCC1 [Compound 40] | – | > 150 | –
O=C(N/N=C1\CCCc2cccnc21)c1ccccc1OCCCN1CCCCC1 [Compound 42] | – | > 150 | –

Compound | GSK-Zn (signal as % of the positive standard PBT2+ZnCl2) [1] | activation at 20 µM [2] [%] | Fe-Efflux (% increase of Fe in media relative to cell media in the absence of the compound) [2]
COc1cccc(C(=O)N/N=C(\C)c2ncccn2)c1 [Compound 47] | C (C 100-<150%) | 30 to 100 | –
C/C(=N\NC(=O)c1snnc1C)c1ncccn1 [Compound 48] | C (C 100-<150%) | > 150 | –
C/C(=N\NC(=O)c1cccc(C)c1)c1ncccn1 [Compound 49] | B (B 50-<100%) | > 150 | –
COc1cccc(C(=O)N/N=C(/c2ncccn2)C(C)C)c1 [Compound 50] | C (C 100-<150%) | < 30 | –
Cc1nnsc1C(=O)N/N=C(/c1ncccn1)C(C)C [Compound 52] | B (B 50-<100%) | 30 to 100 | –
COc1ccccc1C(=O)N/N=C(\C)c1cc(C)ccn1 [Compound 55] | – | 30 to 100 | –
C/C(=N\NC(=O)c1snnc1C)c1nccnc1C [Compound 57] | – | 100 to 150 | –
C/C(=N\NC(=O)c1cccc(C)c1)c1nccnc1C [Compound 58] | – | < 30 | –
C/C(=N\NC(=O)c1snnc1C)c1ccc2ccccc2n1 [Compound 91] | C (C 100-<150%) | 30 to 100 | –
C/C(=N\NC(=O)c1cc2c(s1)-c1ccccc1OC2)c1nc(C)cs1 [Compound 101] | – | < 30 | –
Cc1ccc(C(=O)N/N=C/c2nccn2C)cn1 [Compound 117] | – | < 30 | –
Cc1cccc(C(=NNC(=O)c2ccccc2C)c2cccc(C)n2)n1 [Compound 122] | A (A<50%) | < 30 | –
O=C(N/N=C/c1cn2ccccc2n1)c1cc2ccccc2s1 [Compound 138] | – | < 30 | –
COC(=O)CN(/N=C(\C)c1ccccn1)C(=O)c1cc2ccccc2s1 [Compound 147, (E)-Methyl 2-(1-(benzo[b]thiophene-2-carbonyl)-2-(1-(pyridin-2-yl)ethylidene) hydrazinyl) Acetate] | – | – | A (A<30%)
O=C(N/N=C1\CCOc2cccnc21)c1cccnc1 [Compound 171, (E)-N′-(2,3-dihydro-4H-pyrano[3,2-b]pyridin-4-ylidene)nicotinohydrazide] | – | < 30 | –
Cc1nnsc1C(=O)N/N=C1\CCOc2cccnc21 [Compound 172] | – | 100 to 150 | –
O=C(N/N=C1\CCOc2cccnc21)c1cccs1 [Compound 178] | – | 100 to 150 | –
